Assay results: patent US5532240A, “Condensed thiophene compound and pharmaceutical use thereof” (Yoshitomi Pharmaceutical Industries, Ltd., priority 1991, dated 1996)
“Also recorded” adds a separate entry of the source. Like-named read-outs stand apart in the source and are kept apart here.

What was measured:
[1] = target: T1, dopamine 2 (D2) receptor (Rattus norvegicus, UniProt P61169); assay: Affinity for dopamine 2 receptor (tritiated spiperone binding); parameters: species or system Wistar rats; settings: rat corpus striatum synaptosomes; [3H]spiperone 0.2 nM; 37° C., 20 min
T1 construct: A synaptosome fraction was separated from corpus striatum; from tissue; host or cells: corpus striatum of 9-10 week-old Wistar rats, synaptosome fraction
T1 sequence (P61169 whole entry): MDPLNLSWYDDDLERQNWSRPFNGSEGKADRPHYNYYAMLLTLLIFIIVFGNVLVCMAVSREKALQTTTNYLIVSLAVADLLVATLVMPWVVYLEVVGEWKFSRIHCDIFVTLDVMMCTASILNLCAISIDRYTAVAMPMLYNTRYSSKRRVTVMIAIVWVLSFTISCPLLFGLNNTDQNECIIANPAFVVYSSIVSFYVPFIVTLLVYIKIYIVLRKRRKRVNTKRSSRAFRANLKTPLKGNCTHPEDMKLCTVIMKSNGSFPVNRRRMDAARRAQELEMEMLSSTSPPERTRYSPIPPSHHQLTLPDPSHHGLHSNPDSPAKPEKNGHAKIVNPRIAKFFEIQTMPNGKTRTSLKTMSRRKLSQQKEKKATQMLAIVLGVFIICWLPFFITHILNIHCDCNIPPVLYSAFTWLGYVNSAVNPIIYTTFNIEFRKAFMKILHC
Description: Affinity for dopamine 2 receptor
A specific binding of dopamine 2 (D2) receptor was tested according to the method described in Eur. J. Pharmacol. 46, 377 (1977).
A synaptosome fraction was separated from corpus striatum of 9-10 week-old Wistar rats, and suspended in 50 mM Tris-HCl buffer (pH 7.1) containing 120 mM sodium chloride, 5 mM potassium chloride, 2 mM calcium chloride, 1 mM magnesium chloride, 10 μM pargyline and 0.1% ascorbic acid for the experiment.
The test compound at several concentrations and tritiated spiperone (final concentration 0.2 nM) were added to the synaptosome suspension, and each mixture was incubated at 37° C. for 20 minutes. After the incubation, the mixture was filtered with suction through Whatman GF/B (trade mark) glass filter. The filter was washed with 50 mM Tris-HCl buffer (pH 7.7), and the radioactivity of the filter was measured by a liquid scintillation counter. Non-specific binding was determined in the presence of 10^-4 M (±)-sulpiride. The concentration necessary for 50% inhibition (IC50) was determined on a graph, and inhibition constant (Ki value) was calculated.

[2] = test system: apomorphine-induced hyperactivity; assay: Anti-apomorphine action (in mouse); type: in vivo, male dd mice; settings: oral, 60 min before 0.5 mg/kg s.c. apomorphine hydrochloride, movement lowered by 50%
Description: Anti-apomorphine action (in mouse)
Male dd mice at 3 per group were used for the experiment. The test compound was orally administered to the mice, and 60 minutes later, 0.5 mg/kg of apomorphine hydrochloride was subcutaneously administered. the movement for 20 minutes from immediately after the administration of apomorphine hydrochloride was measured using Valimex (Columbus, USA). Each group was tested four times, and the amount of the test compound necessary to lower the movement by 50% than that of a control group was calculated from a graph and taken as ED50.

[3] = test system: ergometrine-induced head-twitches; assay: Anti-ergometrine action (head-twitch); type: in vivo, male ddY mice; settings: Mus musculus; oral, 60 min before 20 mg/kg i.p. ergometrine maleate; head-twitch vanished, Probit
Description: Male ddY mice at 12 per group were used for the experiment. The test compound was orally administered to the mice, and 60 minutes later, 20 mg/kg of ergometrine maleate was intraperitoneally administered. The amount of the test compound necessary to vanish the head-twitch reaction for 10 minutes from immediately after the administration of ergometrine maleate was calculated as ED50 value by Probit method.

[4] = target: T2, serotonin 1A (5-HT1A) receptor (Rattus norvegicus, UniProt P19327); assay: Affinity for serotonin 1A receptor (tritiated 8-OH-DPAT binding); parameters: species or system Wistar rats; settings: rat hippocampus crude synaptosomes; [3H]8-OH-DPAT 0.2 nM; 37° C., 12 min
T2 construct: A crude synaptosome fraction was separated from hippocampus; from tissue; host or cells: hippocampus of 9-10 week-old Wistar rats, crude synaptosome fraction
T2 sequence (P19327 1-422): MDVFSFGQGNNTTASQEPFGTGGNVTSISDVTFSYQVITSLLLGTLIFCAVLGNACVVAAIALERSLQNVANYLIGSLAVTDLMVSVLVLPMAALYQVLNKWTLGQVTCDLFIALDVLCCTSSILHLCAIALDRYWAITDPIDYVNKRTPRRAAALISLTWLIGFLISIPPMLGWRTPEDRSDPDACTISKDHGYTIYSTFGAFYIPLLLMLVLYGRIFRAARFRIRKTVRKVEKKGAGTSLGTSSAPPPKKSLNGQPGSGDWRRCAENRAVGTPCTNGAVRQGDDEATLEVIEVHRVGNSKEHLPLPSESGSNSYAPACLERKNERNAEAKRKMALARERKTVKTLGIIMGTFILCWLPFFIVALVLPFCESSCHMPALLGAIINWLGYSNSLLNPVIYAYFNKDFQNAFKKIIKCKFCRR
Description: Affinity for serotonin 1A receptor
A specific binding of serotonin 1A (5-HT1A) receptor was tested according to the method described in J. Neurochem. 44, 1685 (1985).
(§1) A crude synaptosome fraction was separated from hippocampus of 9-10 week-old Wistar rats, and suspended in 50 mM Tris-HCl buffer (pH 7.4) containing 1 mM manganese chloride for the experiment. The test compound at several concentrations and tritiated 8-hydroxy-2-dipropyl-aminotetralin(8-OH-DPAT, final concentration 0.2 nM) were added to the synaptosome suspension, and each mixture was incubated at 37° C. for 12 minutes. After the incubation, the mixture was filtered with suction through Whatman GF/B (trade mark) glass filter. The filter was washed with 50 mM Tris-HCl buffer (pH 7.7), and the radioactivity of the filter was measured by a liquid scintillation counter. Non-specific binding was determined in the presence of 10^-5 M serotonin (5-HT). The concentration necessary for 50% inhibition (IC50) was determined on a graph, and inhibition constant (Ki value) was calculated.

[5] = target: T3, serotonin 2 (5-HT2) receptor (Rattus norvegicus, UniProt P14842); assay: Affinity for serotonin 2 receptor (tritiated ketanserin binding); parameters: species or system Wistar rats; settings: rat hippocampus crude synaptosomes; [3H]ketanserin 0.2 nM; 37° C., 20 min
T3 construct: A crude synaptosome fraction was separated from hippocampus; from tissue; host or cells: hippocampus of 9-10 week-old Wistar rats, crude synaptosome fraction
T3 sequence (P14842 whole entry): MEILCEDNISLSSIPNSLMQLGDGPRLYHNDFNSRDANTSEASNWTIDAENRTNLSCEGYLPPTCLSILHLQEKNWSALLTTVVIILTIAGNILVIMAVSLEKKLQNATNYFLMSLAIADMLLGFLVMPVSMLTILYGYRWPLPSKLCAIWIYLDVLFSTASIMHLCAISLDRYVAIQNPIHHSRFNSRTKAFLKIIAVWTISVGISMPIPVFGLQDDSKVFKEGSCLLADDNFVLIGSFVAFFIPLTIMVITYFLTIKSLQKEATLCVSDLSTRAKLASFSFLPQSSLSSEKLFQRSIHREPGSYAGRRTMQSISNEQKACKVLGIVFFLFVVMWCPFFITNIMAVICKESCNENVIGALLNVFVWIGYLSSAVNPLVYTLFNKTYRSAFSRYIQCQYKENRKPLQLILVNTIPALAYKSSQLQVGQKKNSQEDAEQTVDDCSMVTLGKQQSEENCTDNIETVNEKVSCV
Description: Affinity for serotonin 2 receptor
A specific binding of serotonin 2 (5-HT2) receptor was tested according to the method described in Mol. Pharmacol. 21, 301 (1981).
as §1, with “7.7)” for “7.4) containing 1 mM manganese chloride”, “concentration” for “concentrations”, “ketanserin (final” for “8-hydroxy-2-dipropyl-aminotetralin(8-OH-DPAT, final”, “20” for “12”, “mianserin.” for “serotonin (5-HT).”, “value )” for “value)”

[6] = test system: negative symptoms, EPS, depression and internal secretion in patients; settings: cited from earlier work
[7] = test system: D2; settings: cited from earlier work
[8] = test system: catalepsy induced by haloperidol; settings: preclinical; cited from earlier work

Row | SMILES | Ki [1] [nM] | ED50 [2] [mg/kg] | ED50 [3] [mg/kg] | Ki [4] [nM] | Ki [5] [nM] | EPS / side-effects in clinical use [6] | clinical effect on symptoms [6] | EPS / side-effects in clinical use ([6]; listed as risperidone) | D2 receptor antagonistic properties [7] | effect on catalepsy induced by haloperidol [8]
1 | O=C1CCCc2sc(CCN3CCC(c4noc5cc(F)ccc45)CC3)cc2N1 [Example 15, 2-(2-(4-(6-fluoro-1,2-benzisoxazol-3-yl)piperidin-1-yl)ethyl)-4,6,7,8-tetrahydro-5H-thieno[3,2-b]azepin-5-one] | 0.065 | 0.063 | 0.089 | 1.6 | 0.32 | – | – | – | – | –
2 | Cc1sc2c(c1CCN1CCC(c3noc4cc(F)ccc34)CC1)NC(=O)CCC2 [Example 22, 3-(2-(4-(6-fluoro-1,2-benzoxazolyl-3-yl)piperidin-1-yl)ethyl)-2-methyl-4,6,7,8-tetrahydro-5H-thieno[3,2-b]azepin-5-one] | 0.52 | 1.1 | 1.5 | 15 | 0.21 | – | – | – | – | –
3 | CCc1sc2c(c1CCN1CCC(c3noc4cc(F)ccc34)CC1)CCN(C(C)=O)C2 [Example 32, 6-acetyl-2-ethyl-3-(2-(4-(6-fluoro-1,2-benzisoxazol-3-yl)piperidin-1-yl)ethyl)-4,5,6,7-tetrahydrothieno[2,3-c]pyridine] | 0.1 | – | – | 54 | 0.086 | – | – | – | – | –
4 | CC(=O)N1CCc2c(sc(CCN3CCC(c4noc5cc(F)ccc45)CC3)c2C)C1 [Example 42, 6-acetyl-2-(2-(4-(6-fluoro-1,2-benzisoxazol-3-yl)piperidin-1-yl)ethyl)-4,5,6,7-tetrahydro-3-methylthieno[2,3-c]pyridine] | 0.23 | 0.2 | 0.19 | 1.1 | 0.2 | – | – | – | – | –
5 | CC(=O)N1CCc2cc(C(=O)CCCN3CCC(c4noc5cc(F)ccc45)CC3)sc2C1 [Example 43, 6-acetyl-2-(4-(4-(6-fluoro-1,2-benzisoxazol-3-yl)piperidin-1-yl)butyryl)-4,5,6,7-tetrahydrothieno[2,3-c]pyridine] | 1.5 | – | – | 87 | 0.11 | – | – | – | – | –
6 | CC(=O)N1CCc2c(sc(C)c2CCN2CCC(c3csc4cc(F)ccc34)CC2)C1 [Example 53, 6-acetyl-3-(2-(4-(6-fluorobenzo(b)thiophen-3-yl)piperidin-1-yl)ethyl)-4,5,6,7-tetrahydro-2-methylthieno[2,3-c]pyridine] | 0.15 | – | – | 3.7 | 0.043 | – | – | – | – | –
7 | CCc1c(CCN2CCC(c3noc4cc(F)ccc34)CC2)sc2c1CCN(C(C)=O)C2 [Example 73, 6-acetyl-2-(2-(4-(6-fluoro-1,2-benzisoxazol-3-yl)piperidin-1-yl)ethyl)-3-ethyl-4,5,6,7-tetrahydrothieno[2,3-c]pyridine] | 0.25 | 0.25 | 0.35 | 0.16 | 0.082 | – | – | – | – | –
8 | CCc1c(CCN2CCC(c3csc4cc(F)ccc34)CC2)sc2c1CCN(C(C)=O)C2 [Example 84, 6-acetyl-3-ethyl-2-(2-(4-(6-fluorobenzo-(b)thiophen-3-yl)piperidin-1-yl)ethyl)-4,5,6,7-tetrahydrothieno[2,3-c]pyridine] | 0.21 | 0.73 | 0.95 | 0.13 | 0.18 | – | – | – | – | –
9 | CCc1c(CCN2CCC(c3coc4cc(F)ccc34)CC2)sc2c1CCN(C(C)=O)C2 [Example 85, 6-acetate-3-ethyl-2-(2-(4-(6-fluorobenzo(b)furan-3-yl)piperidin-1-yl)ethyl)-4,5,6,7-tetrahydro-thieno[2,3-c]pyridine] | 0.52 | 0.79 | 0.52 | 0.31 | 0.38 | – | – | – | – | –
10 | CCc1c(CCN2CCC(c3nsc4cc(F)ccc34)CC2)sc2c1CCN(C(C)=O)C2 [Example 86, 6-acetyl-3-ethyl-2-(2-(4-(6-fluoro-1,2-benzisothiazol-3-yl)piperidin-1-yl)ethyl)-4,5,6,7-tetrahydrothieno[2,3-c]pyridine] | 0.17 | 0.54 | 0.27 | 0.59 | 0.092 | – | – | – | – | –
11 | CCc1c(CCN2CCC(c3coc4ccc(C)cc34)CC2)sc2c1CCN(C(C)=O)C2 [Example 145, 6-acetyl-3-ethyl-2-(2-(4-(5-methylbenzo(b)-furan-3-yl)piperidin-1-yl)ethyl)-4,5,6,7-tetrahydrothieno[2,3-c]pyridine] | 3.8 | – | – | 0.14 | 2.8 | – | – | – | – | –
12 | O=C1CCCc2sc(CCN3CCC(c4coc5cc(F)ccc45)CC3)cc2N1 [Example 147, 2-(2-(4-(6-fluorobenzo(b)furan-3-yl)piperidin-1-yl)ethyl)-4,6,7,8-tetrahydro-5H-thieno[3,2-b]azepin-5-one] | 0.4 | – | – | 0.32 | 0.86 | – | – | – | – | –
13 | Cc1ccc2occ(C3CCN(CCc4cc5c(s4)CCCC(=O)N5)CC3)c2c1 [Example 148, 2-(2-(4-(5-methylbenzo(b)furan-3-yl)piperidin-1-yl)ethyl)-4,6,7,8-tetrahydro-5H-thieno[3,2-b]azepin-5-one] | 2.3 | – | – | 0.24 | 8.6 | – | – | – | – | –
14 | Cc1nc2n(c(=O)c1CCN1CCC(c3noc4cc(F)ccc34)CC1)CCCC2 [Risperidone] | – | – | – | – | – | low EPS liability | effective antipsychotic; also recorded: beneficial effects on the negative symptoms of schizophrenia | EPS is appeared in high dose; also recorded: side-effect of internal secretion | potent | –
15 | O=C1CC2(CCCC2)CC(=O)N1CCCCN1CCN(c2ncccn2)CC1 [buspirone] | – | – | – | – | – | – | improved the depression and EPS caused by haloperidol therapy | – | – | reverse catalepsy induced by haloperidol
16 | Cc1nc2sccn2c(=O)c1CCN1CCC(=C(c2ccc(F)cc2)c2ccc(F)cc2)CC1 [ritanserin] | – | – | – | – | – | reduces the incidence of EPS caused by typical antipsychotic drug therapy | ameliorates negative symptoms | – | – | –
